The text below walks through data of patent US20170042936A1, “COMPOSITION FOR LOCAL AND CONTROLLED RELEASE OF DRUGS AND METHODS THEREOF” (INEB - INSTITUTO NACIONAL DE ENGENHARIA BIOMÉDICA, priority 2014, published 2017).

Series [1] concerns MC3T3-E1 cells. The experiment in a line: Metabolic activity of pre-osteoblasts (resazurin) in presence of released vancomycin. In kind it is cell-based, mouse. As to the method:
(§1) The pre-osteoblasts MC3T3-E1 cells, an osteoblastic cell line derived from mouse calvaria, were grown in alpha minimum essential medium (α-MEM, Gibco, Life Technologies, Grand Island, N.Y.), supplemented with 1% penicillinstreptomycin (Gibco) and 10% fetal bovine serum (FBS, Invitrogen, Carlsbad, Calif.). Cells were incubated in a humidified environment at 37° C. and 5% of CO2. Vancomycin adsorption on granules was performed as mentioned earlier. Granules were placed in 96-well plates, and cells were seeded using a density of 5×10^4 cells/mL. Cells were cultured for 21 days, and medium was changed three times a week. As control, cells were cultured on tissue culture polystyrene (TCPS) with the same conditions used for the granules. For each condition, six replicates were used for the resazurin assay.
In an embodiment, the metabolic activity was also performed. The nontoxic alamar blue (resazurin) dye was used to determine the metabolic activity of MC3T3-E1 cells. The blue nonfluorescent dye is metabolized by cells, converting it to a reduced pink fluorescence dye. Therefore, 10% (v/v) of resazurin was added to the medium and incubated for 4 h at 37° C. and 5% of CO2. Afterward, 100 μL was transferred into a black 96-well plate, and fluorescence was measured at 530 nm excitation and 590 nm emission wavelength with a fluorescence reader (SynergyMix, BioTek, Winooski, Vt.) using Gen5 1.09 Data Analysis Software. These measurements were made at 24 h and 4, 7, 14, and 21 days of culture.
A general note: Alamar Blue is a resazurin reagent that responds to reducing activity.

For series [2], the system named is MC3T3-E1 cells. Briefly: Cell morphology on granules by SEM and confocal laser scanning microscopy. In kind it is cell-based, mouse. The note with it: in presence of vancomycin. As to the method: as §1
Granules with seeded cells were rinsed with PBS and fixer using 1.5% gluteraldehyde (v/v) (Agar) in 0.14 M sodium cacodyl-ate buffer (Merck, Kenilworth, N.J.) at RT for 30 min. The samples were washed twice with PBS and then dehydrated in graded series of ethanol. Hexamethyldisilazane (Sigma) was added, and the samples were dried overnight at RT. Granules were visualized on SEM as previously described.
Confocal laser scanning microscopy. Granules with seeded cells were fixed using 4% paraformaldehyde for 15 min and then washed twice with PBS. Triton X-100 0.1% was used, for 5 min, to permeabilize the cells, and the cells were then incubated in 1% bovine serum albumin at 37° C. for 30 min. After incubation, the staining of the F-actin filaments was performed using Alexa Fluor 594 Phalloidin (1:100, Molecular Probes A12379, Invitrogen) in 1% bovine serum albumin at RT for 20 min in dark. The samples were then washed twice with PBS. Cell nuclei were stained with a solution of Hoechst dye (1:1000, Sigma) in PBS at RT for 15 min in dark. Finally, the samples were washed twice with PBS, and one drop of Vectashield was added. The images were acquired with a Leica SP5 Confocal microscope, using a […] oil immersion objective. […]

Another series relates to S. aureus ATCC 25923. Particulars: cited from earlier work.

Entries after “also recorded” stand apart in the source; their conditions may differ.

In the case of `CN[C@H](CC(C)C)C(=O)N[C@H]1C(=O)N[C@@H](CC(N)=O)C(=O)N[C@H]2C(=O)N[C@H]3C(=O)N[C@H](C(=O)N[C@H](C(=O)O)c4cc(O)cc(O)c4-c4cc3ccc4O)[C@H](O)c3ccc(c(Cl)c3)Oc3cc2cc(c3O[C@@H]2O[C@H](CO)[C@@H](O)[C@H](O)[C@H]2O[C@H]2C[C@](C)(N)[C@H](O)[C@H](C)O2)Oc2ccc(cc2Cl)[C@H]1O` [vancomycin], in the series on MC3T3-E1 cells [1] (vancomycin released from heparinized granules, after 14 days of culture), the “viability of osteoblast cells in presence of vancomycin” value is listed as “cells were able to remain viable; also recorded: did not affect the viability of MC3T3-E1 cells”. Besides, in the series on MC3T3-E1 cells [1] (vancomycin released from heparinized nanoHA/collagen granules, 24 h of culture), the “metabolic activity of MC3T3-E1 cells versus without vancomycin” value is “no difference in the metabolic activity”. The “metabolic activity of MC3T3-E1 cells” value is “increased their metabolic activity” in the series on MC3T3-E1 cells [1] (vancomycin released from heparinized nanoHA/collagen granules, after 14 days up to 21 days of culture) and “decrease in metabolic activity” with MC3T3-E1 cells [1] (vancomycin released from heparinized nanoHA/collagen granules, until 7 days of culture). Moreover, the “MC3T3-E1 cell morphology (confocal microscopy)” value is recorded as “more rounded morphology” with MC3T3-E1 cells [2] (24 h and 4 days); “started to elongate on the surface of the material” in the series with MC3T3-E1 cells [2] (after 7 days); “well spread, covering the entire surface” in the series on MC3T3-E1 cells [2] (after 14 days). Also, the “vancomycin minimum inhibitory concentration (MIC)” value with S. aureus ATCC 25923 was 1 µg/mL.
